# From patent EP2818471A1, “Nitrogen bicyclic compounds as inhibitors for Scyl1 and Grk5” (Max-Planck-Gesellschaft zur Förderung der Wissenschaften …, priority 2013, dated 2014)
# Tested on: beta-TC6 cells
# Experiment: Insulin HTRF assay, relative activity Ar normalized to sunitinib
# Assay type: cell-based
# Conditions: Mus musculus, normalized to positive control sunitinib (5 µM = 100%), Table 10
# Text: For further screening of compounds derived from compounds described above for their ability to regulate insulin release an insulin HTRF® (Homogeneous Time-Resolved Fluorescence; Cisbio International, France) was used. This assay is based on two antibodies against insulin binding to different epitopes of insulin. One of these antibodies is coupled to Europium (Ab-Eu-Cryptate) and the other one to the fluorophore XL665 (Ab-XL665). Is insulin secreted into the supernatant of cell culture both antibodies can bind to insulin and come therefore into close proximity which allows upon excitation that energy transfer between (FRET) the long-life fluorescent donor Europium (cryptate) and the acceptors XL665. FRET increases proportionally with insulin concentration.
# The automated assay protocol is as follows: • On day 1 15k beta-TC6 cells per well were seeded for 24 or 48 h in 50 µl complete medium. On day 2 or respective on day 3 the medium is removed and cells are washed with 60 µl 1xPBS and 20 µl induction buffer is added using BioTek washer. Subsequently, 10 µl Sunitininb (5 µM f.c.) or the test compound in induction buffer; 0.5% f.c. DMSO (CyBi-well) is transferred to the cells. The cells are then incubated at 37°C for 2, 3, 4h.
# The HTRF assay is carried out using Greiner 384-well 784075 assay plates. First 10 µl supernatant is transferred from the cell plates in HTRF plates (CyBi-well). 10 µl of 0, 1, 2, and 4 ng/ml Insulin standard controls in assay medium is used as a control. To each well 10 µl of combined 1:25 Ab-XL665 (Acc) and 1:20 Ab-Eu-Cryptate (WellMate) are added and incubated for 120 min at RT in the dark. Finally HTRF is measured on ViewLux ultra high throughput microplate imager (PerkinElmer).
# The evaluation software DataFactoty derives relative activities Ar according to the following equation: Ar = (V-R(0%control))/(R(100%control) -R(0%control)) × 100 [formula] […]
# The activity of the compounds was classified according to their Ar (relative activity) into the following ranges: Ar ≥ 100% + + + +; 50% ≤ Ar < 100% + + +; 20% ≤ Ar < 50% + +; 10% < Ar < 20% + [formula] Table 10. Ar (relative activity) values of inventive compounds
row,Structure (SMILES),Emax
1,"CN(C)c1ccc(-c2ccc3ncc(-c4ccc(CO)cc4)n3n2)cc1 [compound 129, [4-[6-(4-dimethylaminophenyl)imidazo[1,2-b]pyridazin-3-yl]phenyl]methanol]",50 to 100%
2,"OCc1ccc(-c2cnc3ccc(-c4cncnc4)nn23)cc1 [compound 130, [4-(6-pyrimidin-5-ylimidazo[1,2-b]pyridazin-3-yl)phenyl]methanol]",10 to 20%
3,"OCc1cccc(-c2cnc3ccc(-c4cccc(Oc5ccccc5)c4)nn23)c1 [compound 133, [3-[6-(3-phenoxyphenyl)imidazo[1,2-b]pyridazin-3-yl]phenyl]methanol]",20 to 50%
4,"FC(F)(F)c1cccc(-c2cnc3ccc(-c4ccncc4)nn23)c1 [compound 134, 6-(4-pyridyl)-3-[3-(trifluoromethyl)phenyl]imidazo[1,2-b]pyridazine]",20 to 50%
5,"Oc1cccc(-c2ccc3ncc(-c4cccc(C(F)(F)F)c4)n3n2)c1 [compound 135, 3-[3-[3-(trifluoromethyl)phenyl]imidazo[1,2-b]pyridazin-6-yl]phenol]",20 to 50%
6,"FC(F)(F)c1cccc(-c2cnc3ccc(C4CC4)nn23)c1 [compound 136, 6-cyclopropyl-3-[3-(trifluoromethyl)phenyl]imidazo[1,2-b]pyridazine]",10 to 20%
7,"COc1cc(-c2cnc3ccc(-c4cccc(OC(F)(F)F)c4)nn23)ccc1O [compound 138, 2-methoxy-4-[6-[3-(trifluoromethoxy)phenyl]imidazo[1,2-b]pyridazin-3-yl]phenol]",10 to 20%
8,"NC(=O)c1ccc(-c2cnc3ccc(Cc4ccc(F)c(F)c4)nn23)cc1 [compound 145, 4-[6-[(3,4-difluorophenyl)methyl]imidazo[1,2-b]pyridazin-3-yl]benzamide]",20 to 50%
9,"CC(=O)Nc1ccc(-c2cnc3ccc(-c4ccc(N5CCOCC5)cc4)nn23)cc1 [compound 147, N-[4-[6-(4-morpholinophenyl)imidazo[1,2-b]pyridazin-3-yl]phenyl]acetamide]",≥ 100%
10,"CC(=O)Nc1ccc(-c2cnc3ccc(-c4ccc5c(c4)OCO5)nn23)cc1 [compound 148, N-[4-[6-(1,3-benzodioxol-5-yl)imidazo[1,2-b]pyridazin-3-yl]phenyl]acetamide]",≥ 100%
11,"CC(=O)Nc1ccc(-c2cnc3ccc(-c4ccc(S(C)(=O)=O)cc4)nn23)cc1 [compound 149, N-[4-[6-(4-methylsulfonylphenyl)imidazo[1,2-b]pyridazin-3-yl]phenyl]acetamide]",10 to 20%
12,"CC(=O)c1cccc(-c2cnc3ccc(-c4ccc(N)nc4)nn23)c1 [compound 153, 1-[3-[6-(6-amino-3-pyridyl)imidazo[1,2-b]pyridazin-3-yl]phenyl]ethanone]",20 to 50%
13,"CN(C)c1cccc(-c2ccc3ncc(-c4cccs4)n3n2)c1 [compound 155, N,N-dimethyl-3-[3-(2-thienyl)imidazo[1,2-b]pyridazin-6-yl]aniline]",20 to 50%
14,"Fc1ccc(-c2ccc3ncc(-c4cccs4)n3n2)cc1Cl [compound 156, 6-(3-chloro-4-fluoro-phenyl)-3-(2-thienyl)imidazo[1,2-b]pyridazine]",20 to 50%
15,"COc1cc(-c2ccc3ncc(-c4cccs4)n3n2)ccc1O [compound 157, 2-methoxy-4-[3-(2-thienyl)imidazo[1,2-b]pyridazin-6-yl]phenol]",20 to 50%
16,"Clc1ccccc1-c1ccc2ncc(-c3cccs3)n2n1 [compound 158, 6-(2-chlorophenyl)-3-(2-thienyl)imidazo[1,2-b]pyridazine]",10 to 20%
17,"CS(=O)(=O)Nc1cccc(-c2cnc3ccc(Cc4ccc(F)cc4)nn23)c1 [compound 159, N-[3-[6-[(4-fluorophenyl)methyl]imidazo[1,2-b]pyridazin-3-yl]phenyl]methanesulfonamide]",10 to 20%

row,Structure (SMILES),Emax
1,"Nc1ccc(-c2cnc3ccc(Cc4ccccc4)nn23)cn1 [compound 161, 5-(6-benzylimidazo[1,2-b]pyridazin-3-yl)pyridin-2-amine]",20 to 50%
2,"CN(C)/C(=C1\N=C(c2ccccc2)OC1=O)c1cnc2cccnn12 [compound 162, (4Z)-4-[dimethylamino(imidazo[1,2-b]pyridazin-3-yl)methylene]-2-phenyl-oxazol-5-one]",10 to 20%
3,"c1ccc(-c2nnc3ccc(-c4ccc5c(c4)OCO5)cn23)cc1 [compound 164, 6-(1,3-benzodioxol-5-yl)-3-phenyl-[1,2,4]triazolo[4,3-a]pyridine]",50 to 100%
4,"CC(=O)Nc1cccc(-c2ccc3nnc(-c4ccccc4)n3c2)c1 [compound 165, N-[3-(3-phenyl-[1,2,4]triazolo[4,3-a]pyridin-6-yl)phenyl]acetamide]",50 to 100%
5,"COc1ccc(-c2ccc3nnc(-c4ccccc4)n3c2)c(C)c1 [compound 166, 6-(4-methoxy-2-methyl-phenyl)-3-phenyl-[1,2,4]triazolo[4,3-a]pyridine]",≥ 100%
6,"C(#Cc1ccccn1)c1ccc2nnc(-c3ccccc3)n2c1 [compound 167, 3-phenyl-6-[2-(2-pyridyl)ethynyl]-[1,2,4]triazolo[4,3-a]pyridine]",50 to 100%
7,"CN(C)CC#Cc1ccc2nnc(-c3ccccc3)n2c1 [compound 168, N,N-dimethyl-3-(3-phenyl-[1,2,4]triazolo[4,3-a]pyridin-6-yl)prop-2-yn-1-amine]",10 to 20%
8,"CS(=O)(=O)Nc1cccc(-c2ccc3nnc(-c4ccccc4)n3c2)c1 [compound 169, N-[3-(3-phenyl-[1,2,4]triazolo[4,3-a]pyridin-6-yl)phenyl]methanesulfonamide]",50 to 100%
9,"Clc1cccc(-c2ccc3nnc(-c4ccc5c(c4)OCO5)n3c2)c1 [compound 170, 3-(1,3-benzodioxol-5-yl)-6-(3-chlorophenyl)-[1,2,4]triazolo[4,3-a]pyridine]",20 to 50%
10,"c1cc(-c2ccc3nnc(-c4ccc5c(c4)OCO5)n3c2)co1 [compound 171, 3-(1,3-benzodioxol-5-yl)-6-(3-furyl)-[1,2,4]triazolo[4,3-a]pyridine]",50 to 100%
11,"Cn1cncc1C#Cc1ccc2nnc(-c3ccc4c(c3)OCO4)n2c1 [compound 172, 3-(1,3-benzodioxol-5-yl)-6-[2-(3-methylimidazol-4-yl)ethynyl]-[1,2,4]triazolo[4,3-a]pyridine]",20 to 50%
12,"OCC#Cc1ccc2nnc(-c3ccc4c(c3)OCO4)n2c1 [compound 173, 3-[3-(1,3-benzodioxol-5-yl)-[1,2,4]triazolo[4,3-a]pyridin-6-yl]prop-2-yn-1-ol]",20 to 50%
13,"Cn1cc(-c2ccc3nnc(-c4ccc5c(c4)OCO5)n3c2)cn1 [compound 174, 3-(1,3-benzodioxol-5-yl)-6-(1-methylpyrazol-4-yl)-[1,2,4]triazolo[4,3-a]pyridine]",50 to 100%
14,"CNC(=O)c1cccc(-c2ccc3nnc(-c4ccc5c(c4)OCO5)n3c2)c1 [compound 175, 3-[3-(1,3-benzodioxol-5-yl)-[1,2,4]triazolo[4,3-a]pyridin-6-yl]-N-methyl-benzamide]",20 to 50%
15,"c1cc(-c2nnc3ccc(-c4ccc(N5CCOCC5)cc4)cn23)ccn1 [compound 176, 4-[4-[3-(4-pyridyl)-[1,2,4]triazolo[4,3-a]pyridin-6-yl]phenyl]morpholine]",20 to 50%
16,"COc1ccc(-c2ccc3nnc(-c4ccncc4)n3c2)cc1OC [compound 177, 6-(3,4-dimethoxyphenyl)-3-(4-pyridyl)-[1,2,4]triazolo[4,3-a]pyridine]",20 to 50%
